Experimental data published in US9073873B2, “2-heterocyclylaminoalkyl-(p-quinone) derivatives for treatment of oxidative stress diseases” (Edison Pharmaceuticals, Inc., priority 2008, dated 2015).

Assays:
Type in all cases: cell-based
[1] = system: human dermal fibroblasts from Parkinson's Disease patients; assay: Rescue of fibroblasts from Parkinson's Disease patients from oxidative stress; conditions: Fibroblast, PD cells AG20439, read-out: protection against PD, EC50
Description: (§1) An initial screen was performed to identify compounds effective for the amelioration of redox disorders. Test samples, 4 reference compounds (idebenone, decylubiquinone, Trolox and α-tocopherol acetate), and solvent controls were tested for their ability to rescue FRDA fibroblasts stressed by addition of L-buthionine-(S,R)-sulfoximine (BSO), as described in Jauslin et al., Hum. Mol. Genet. 11(24):3055 (2002), Jauslin et al., FASEB J. 17:1972-4 (2003), and International Patent Application WO 2004/003565. […] This specific BSO-mediated cell death can be prevented by administration of antioxidants or molecules involved in the antioxidant pathway, such as α-tocopherol, selenium, or small molecule glutathione peroxidase mimetics. However, antioxidants differ in their potency, i.e. the concentration at which they are able to rescue BSO-stressed FRDA fibroblasts.
(§2) Test samples were screened according to the following protocol: A culture with FRDA fibroblasts was started from a 1 ml vial with approximately 500,000 cells stored in liquid nitrogen. Cells were propagated in 10 cm cell culture dishes by splitting every third day in a ratio of 1:3 until nine plates were available. Once confluent, fibroblasts were harvested. For 54 micro titer plates (96 well-MTP) a total of 14.3 million cells (passage eight) were re-suspended in 480 ml medium, corresponding to 100 μl medium with 3,000 cells/well. The remaining cells were distributed in 10 cm cell culture plates (500,000 cells/plate) for propagation. The plates were incubated overnight at 37° C. in a atmosphere with 95% humidity and 5% CO2 to allow attachment of the cells to the culture plate.
(§3) MTP medium (243 μl) was added to a well of the microtiter plate. The test compounds were unfrozen, and 7.5 μl of a 5 mM stock solution was dissolved in the well containing 243 μl medium, resulting in a 150 μM master solution. Serial dilutions from the master solution were made. The period between the single dilution steps was kept as short as possible (generally less than 1 second).
(§4) Plates were kept overnight in the cell culture incubator. The next day, 10 μl of a 10 mM BSO solution were added to the wells, resulting in a 1 mM final BSO concentration. Forty-eight hours later, three plates were examined under a phase-contrast microscope to verify that the cells in the 0% control (wells E1-H1) were clearly dead. The medium from all plates was discarded, and the remaining liquid was removed by gently tapping the plate inversed onto a paper towel.
(§5) 100 μl of PBS containing 1.2 μM Calcein AM were then added to each well. The plates were incubated for 50-70 minutes at room temperature. After that time the PBS was discarded, the plate gently tapped on a paper towel and fluorescence (excitation/emission wavelengths of 485 nm and 525 nm, respectively) was read on a Gemini fluorescence reader. Data was imported into Microsoft Excel (EXCEL is a registered trademark of Microsoft Corporation for a spreadsheet program) and used to calculate the EC50 concentration for each compound.
(§6) Compounds of the invention were tested using a screen similar to the one described in Example A described in Example A, but substituting FRDA cells with Parkinson's Disease (PD) cells obtained from the Coriell Cell Repositories (Camden, N.J.; repository number AG20439). The compounds were tested for their ability to rescue human dermal fibroblasts from Parkinson's Disease patients from oxidative stress.

[2] = system: human dermal fibroblasts from LHON patients; assay: Rescue of fibroblasts from LHON patients from oxidative stress; conditions: Fibroblast, LHON cells GM03858, read-out: protection against LHON, EC50
Description: as §1, §2, §3, §4, §5
as §6, with “Example” for “Example A described in Example”, “Leber's Hereditary Optic Neuropathy (LHON)” for “Parkinson's Disease (PD)”, “GM03858).” for “AG20439).”, “LHON” for “Parkinson's Disease”

[3] = system: human dermal fibroblasts from CoQ10 deficient patients; assay: Rescue of fibroblasts from CoQ10 deficient patients from oxidative stress; conditions: Fibroblast, cells from CoQ10 deficient patients harboring a CoQ2 mutation, read-out: protection against CoQ10 deficiency, EC50
Description: as §1, §2, §3, §4, §5
Compounds of the invention were tested using a screen similar to the one described in Example A, but substituting FRDA cells with cells obtained from CoQ10 deficient patients harboring a CoQ2 mutation. The compounds were tested for their ability to rescue human dermal fibroblasts from CoQ10 deficient patients from oxidative stress.

[4] = system: Human dermal fibroblasts from Friedreich's Ataxia patients; assay: Rescue of BSO-stressed FRDA fibroblasts (Calcein AM viability); conditions: FRDA fibroblasts GM04078, BSO-stressed, read-out: protection against FRDA, EC50
Description: as §1
MEM (a medium enriched in amino acids and vitamins, catalog no. 1-31F24-I) and Medium 199 (M199, catalog no. 1-21F22-I) with Earle's Balanced Salts, without phenol red, were purchased from Bioconcept. Fetal Calf Serum was obtained from PAA Laboratories. Basic fibroblast growth factor and epidermal growth factor were purchased from PeproTech. Penicillin-streptomycin-glutamine mix, L-buthionine (S,R)-sulfoximine, (+)-α-tocopherol acetate, decylubiquinone, and insulin from bovine pancreas were purchased from Sigma. Trolox (6-Hydroxy-2,5,7,8-tetramethylchromane-2-carboxylic acid) was obtained from Fluka. Idebenone was obtained from Chemo Iberica. Calcein AM was purchased from Molecular Probes. Cell culture medium was made by combining 125 ml M199 EBS, 50 ml Fetal Calf Serum, 100 U/ml penicillin, 100 μg/ml streptomycin, 2 mM glutamine, 10 μg/ml insulin, 10 ng/ml EGF, and 10 ng/ml bFGF; MEM EBS was added to make the volume up to 500 ml. A 10 mM BSO solution was prepared by dissolving 444 mg BSO in 200 ml of medium (Invitrogen, Carlsbad, Ca.) with subsequent filter-sterilization. During the course of the experiments, this solution was stored at +4° C. The cells were obtained from the Coriell Cell Repositories (Camden, N.J.; repository number GM04078) and grown in 10 cm tissue culture plates. Every third day, they were split at a 1:3 ratio.
The test samples were supplied in 1.5 ml glass vials. The compounds were diluted with DMSO, ethanol or PBS to result in a 5 mM stock solution. Once dissolved, they were stored at −20° C. Reference antioxidants (idebenone, decylubiquinone, α-tocopherol acetate and Trolox) were dissolved in DMSO.
as §2, §3
Plates were kept overnight in the cell culture incubator. The next day, 10 μl of a 10 mM BSO solution were added to the wells, resulting in a 1 mM final BSO concentration. […]

[5] = system: human dermal fibroblasts from Huntington's patients; assay: Rescue of fibroblasts from Huntington's patients from oxidative stress; conditions: Fibroblast, Huntington's cells GM 04281, read-out: protection against Huntington's, EC50
Description: as §1, §2, §3, §4, §5
as §6, with “Example” for “Example A described in Example”, “Huntington's” for “Parkinson's Disease (PD)”, “GM 04281).” for “AG20439).”, “Huntington's” for “Parkinson's Disease”

Measured: EC50

CC1=C(C)C(=O)C(CCNc2ccc(C(F)(F)F)cn2)=C(C)C1=O [2,3,5-Trimethyl-6-(2-(5-(trifluoromethyl)pyridin-2-ylamino)ethyl)cyclohexa-2,5-diene-1,4-dione]
< 100 nM: all assays above

CC1=C(C)C(=O)C(CCNc2ccccn2)=C(C)C1=O [2,3,5-Trimethyl-6-(2-(pyridin-2-ylamino)ethyl)cyclohexa-2,5-diene-1,4-dione]
< 100 nM: all assays above

CC1=C(C)C(=O)C(CCNc2ncccn2)=C(C)C1=O [2,3,5-Trimethyl-6-(2-(pyrimidin-2-ylamino)ethyl)cyclohexa-2,5-diene-1,4-dione]
< 100 nM: all assays above

CC1=C(C)C(=O)C(CCNc2nccc(F)n2)=C(C)C1=O [2-(2-(4-Fluoropyrimidin-2-ylamino)ethyl)-3,5,6-trimethylcyclohexa-2,5-diene-1,4-dione]
< 100 nM: all assays above

CC1=C(C)C(=O)C(CCNc2cc(C(F)(F)F)ccn2)=C(C)C1=O [2,3,5-Trimethyl-6-(2-(4-(trifluoromethyl)pyridin-2-ylamino)ethyl)cyclohexa-2,5-diene-1,4-dione]
< 100 nM: all assays above

CC1=C(C)C(=O)C(CCNc2ncccc2C(F)(F)F)=C(C)C1=O [2,3,5-Trimethyl-6-(2-(3-(trifluoromethyl)pyridin-2-ylamino)ethyl)cyclohexa-2,5-diene-1,4-dione]
< 100 nM: all assays above

CC1=C(C)C(=O)C(CCNc2cccc(C(F)(F)F)n2)=C(C)C1=O [2,3,5-Trimethyl-6-(2-(6-(trifluoromethyl)pyridin-2-ylamino)ethyl)cyclohexa-2,5-diene-1,4-dione]
< 100 nM: all assays above

CC1=C(C)C(=O)C(CCNc2nccc(C(F)(F)F)n2)=C(C)C1=O [2,3,5-Trimethyl-6-(2-(4-(trifluoromethyl)pyrimidin-2-ylamino)ethyl)cyclohexa-2,5-diene-1,4-dione]
< 100 nM: all assays above

CC1=C(C)C(=O)C(CCNc2ncc(F)cn2)=C(C)C1=O [2-(2-(5-Fluoropyrimidin-2-ylamino)ethyl)-3,5,6-trimethylcyclohexa-2,5-diene-1,4-dione]
< 100 nM: all assays above
